Columns and labels:
[1] = tested on: T cells; experiment: Phase 1b TRIMM-2 study: biomarker / pharmacodynamic assessments (T cells, cytokines); type: in vivo, human
Description: BM-localized MM cells were identified and analysed for cell surface marker expression levels by staining 1.0×10^6 cells/mL with HuMax-003 (CD38) FITC (this antibody binds to an epitope distinct from the epitope bound by daratumumab, Janssen Pharmaceuticals), CD138 PE, CD56 PC7, CD45 Krome Orange (all Beckman Coulter), CD269 (BCMA) APC (Biolegend), CD274 (PD-L1) BV421 and CD19 APC-H7 (both Becton Dickinson). BM or PB immune cell subsets were identified and analysed for cell surface marker expression levels by staining 1.0×10^6 cells/mL with CD45 Krome Orange, CD56 PC7 (both Beckman Coulter), CD14 APC-H7, CD19 APC-H7, CD3 V450, CD4 APC-H7 or PE, CD8 FITC, CD45-RA APC. CD127 PE.Cy7, CD62L PE, CD274 […] BV421, CD16 APC, HLA-DR APC-H7 (all Becton Dickinson) and CD25 PE (Dako) or with CD4 BUV395 (BD Biosciences), CD8 BUV737 (BD
Biosciences), PD-1 BV421 (BD Biosciences), TIM-3 BV650 (BD Biosciences), CD3 BV711 (BD Biosciences), CD45RO BV786 (BD Biosciences). CD38 Humab-003-FITC (Janssen). CD45RA PerCP-Cy5.5 (BD Biosciences). HLA-DR PE (BD Biosciences), LAG-3 PE-eF610 (ThermoFisher), CD25 PE-Cy7 (BD Biosciences), CCR7 AF647 (BD Biosciences), CD127 APC-eF780 (ThermoFisher). All BM samples were analysed within 24 hours from the time the sample was collected.
Flow cytometry was performed using a 7-laser LSRFORTESSA (Becton Dickinson). Fluorescent labeled beads (CS&T beads, Becton Dickinson) were used daily to monitor the performance of the flow cytometer and verify optical path and stream flow. […] Compensation beads were used to determine spectral overlap, and compensation was automatically calculated using Diva software. Flow cytometry data were analyzed using FACS Diva software.
Cytokines [interferon-gamma (IFN-γ), interleukin (IL)-2, IL-6, IL-8, IL-10, and tumor necrosis factor-alpha (TNF-α)] in the cell culture supernatants were analyzed using V-Plex proinflammatory Panel 1 Human Kit (Meso Scale Diagnostics), according to the manufacturer’s protocol. […]

[2] = Phase 1b TRIMM-2 study: pharmacokinetics (serum concentrations); type: in vivo, human; settings: in the presence of daratumumab
Description: Blood and serum or plasma samples were collected for assessments of pharmacokinetics and immunogenicity (e.g., antibodies to daratumumab, rHuPH20, or talquetamab). Selection of the dose regimen (dose level and frequency) for dose expansion was determined based on the pharmacokinetic and pharmacodynamic information obtained during dose escalation. A sample for the pharmacokinetic and immunogenicity analysis was collected at scheduled time and any time a suspected IRR or CRS event (in case of a CRS event, samples were collected at onset, 24 hours and 72 hours) was observed during the study.
Each serum sample was evenly divided into 3 aliquots (1 for pharmacokinetics and immunogenicity of daratumumab, 1 for pharmacokinetics and immunogenicity of talquetamab, and 1 backup). […] For the pharmacokinetics analysis, serum samples were analyzed to determine concentrations of daratumumab and talquetamab using validated, specific, and sensitive assay methods. Pharmacokinetic parameters include, but are not limited to, area under the curve (AUC)(0-t), AUCtau, Cmax, and Tmax would be calculated if sufficient data were available for estimation. […] For the rHuPH20 immunogenicity assessments, plasma samples were screened for antibodies binding to rHuPH20 and were assessed in confirmatory and titer assays as necessary.

[3] = tested on: relapsed or refractory multiple myeloma; experiment: Phase 1b TRIMM-2 study: best response by IMWG criteria, investigator assessment
Description: A phase 1b, open-label, multicenter, multi-cohort study of talquetamab in combination with subcutaneous (SC) dosing regimens of daratumumab administered to adult subjects with multiple myeloma was carried out. Two treatment combinations also included pomalidomide (and concomitant dexamethasone for at least the initial cycles). In the pomalidomide-containing treatment combinations, dexamethasone administration was required through the first 3 full immunomodulatory agent (IMiD)containing cycles to enhance IMiD-driven antimyeloma effects and serve as pretreatment medication for daratumumab and talquetamab. An overall aim of the study was to evaluate the safety of daratumumab in combination with talquetamab with or without pomalidomide (and concomitant dexamethasone at least in the initial cycles), and to evaluate preliminary antitumor activity. Safety was monitored by a Study Evaluation Team (SET).
The treatments were administered in 28-day cycles. Daratumumab was administered to all subjects by SC injection at a dose of 1800 mg as follows: weekly in Cycles 1-2, every 2 weeks (Q2W) in Cycles 3-6, and every 4 weeks thereafter. Note that a recombinant human hyaluronidase PH20 (rHuPH20) was used to decrease the injection volume required, facilitating the SC administration of daratumumab.
Daratumumab SC (Dara) was administered in combination with different dosage levels of talquetamab (Tal), including Dara 1800 mg + Tal 60 µg/kg SC weekly, Dara 1800 mg + Tal 400 µg/kg SC weekly. Dara 1800 mg + Tal 400 µg/kg SC biweekly starting Cycle 3 Day 1 (Tal 400 µg/kg SC weekly in Cycles 1-2), and Dara 1800 mg + Tal 800 µg/kg SC biweekly. Some subjects in the Dara 1800 mg + Tal 400 µg/kg SC weekly cohort switched to Tal 800 µg/kg biweekly SC dosing after Cycle 3 Day 1. Except for the 60 µg/kg talquetamab SC weekly cohort in which step-up dosing began on Cycle 1 Day 9, step-up doses for talquetamab began on Cycle 1 Day 2. When daratumumab and talquetamab were administered on the same day, daratumumab was administered first. Step-up Dose 1 of talquetamab was administered at least 20 hours after SC daratumumab. Subsequent step-up dose(s), if applicable, and first treatment dose of talquetamab were administered approximately 3 hours after SC daratumumab. Subsequent treatment doses of talquetamab was administered approximately 1 hour after SC daratumumab (when both study drugs are administered on the same day).
Disease evaluations would be performed by a central laboratory (additional samples may be collected for analysis by the local laboratory) until disease progression. […] Subjects that meet all other IMWG criteria for CR, and whose positive IFE is confirmed to be daratumumab interference, are considered complete responders. For subjects with light chain multiple myeloma, both serum and urine IFE and serum FLC assay were performed every 4 weeks. Additional serum samples may be utilized to monitor for potential daratumumab interference with the IFE and response adjudicated per IMWG-based response criteria. Quantitative immunoglobulin (QIg, e.g., IgG, IgA, IgM, IgE, and IgD), M-protein by electrophoresis (SPEP), FLC and IFE measurements in serum and urine and serum β-microglobulin were analyzed by the central laboratory. Disease progression based on one of the laboratory tests alone must be confirmed by at least 1 repeat investigation performed 1 to 3 weeks later. Disease evaluations would continue beyond relapse from CR until disease progression was confirmed. Serum and urine IFE and serum FLC assays would be performed at screening and thereafter when a CR or sCR is suspected (when serum or 24-hour urine M-protein electrophoresis [by SPEP or UPEP] are 0 or non-quantifiable). Development of hypercalcemia (corrected serum calcium >11 mg/dL) may indicate disease progression or relapse if it is not attributable to any other cause.

[4] = Tal 400 µg/kg (SC3 and SC6) + 800 µg/kg (SC7 and SC15) with Dara 1800 mg, 56 response evaluable subjects
[5] = Tal Total (all Tal cohorts with Dara, with or without Pom), n=108 evaluable

Substance: daratumumab: anti-CD38 monoclonal antibody approved for MM treatment; HC SEQ ID NO: 13, LC SEQ ID NO: 14; given SC with rHuPH20 [reference compound]
- Proportion of CD38+/CD8+ T cells ([1]; after initial daratumumab dosing on C1D1): declined

Substance: talquetamab
- Pharmacokinetic profile of talquetamab [2]: consistent with the profile of observed in the phase 1 talquetamab monotherapy
- CR or better (sCR + CR) ([3]; Overall Total, n=186 evaluable): 46 (24.7%)
- Clinical benefit (Overall response + MR) ([3]; Overall Total, n=186 evaluable): 146 (78.5%)
- Complete response (CR) ([3]; Overall Total, n=186 evaluable): 28 (15.1%)
- Minimal response (MR) ([3]; Overall Total, n=186 evaluable): 0
- Not evaluable (NE) ([3]; Overall Total, n=186 evaluable): 1 (1.2%)
- Overall response (sCR+CR+VGPR+PR) ([3]; Overall Total, n=186 evaluable): 146 (78.5%)
- Partial response (PR) ([3]; Overall Total, n=186 evaluable): 22 (11.8%)
- Progressive disease (PD) ([3]; Overall Total, n=186 evaluable): 11 (5.9%)
- Stringent complete response (sCR) ([3]; Overall Total, n=186 evaluable): 18 (9.7%)
- VGPR or better (sCR + CR + VGPR) ([3]; Overall Total, n=186 evaluable): 124 (66.7%)
- Very good partial response (VGPR) ([3]; Overall Total, n=186 evaluable): 78 (41.9%)
- Very good partial response (VGPR), Unconfirmed ([3]; Overall Total, n=186 evaluable): 11
- CR or better (sCR + CR) [3, 4]: 16 (28.6%)
- Clinical benefit (Overall response + MR) [3, 4]: 45 (80.4%)
- Complete response (CR) [3, 4]: 9 (16.1%)
- Complete response (CR), Unconfirmed [3, 4]: 3
- Minimal response (MR) [3, 4]: 0
- Not evaluable (NE) [3, 4]: 0
- Overall response (sCR+CR+VGPR+PR) [3, 4]: 45 (80.4%)
- Partial response (PR) [3, 4]: 9 (16.1%)
- Partial response (PR), Unconfirmed [3, 4]: 4
- Progressive disease (PD) [3, 4]: 3 (5.4%)
- Stringent complete response (sCR) [3, 4]: 7 (12.5%)
- Stringent complete response (sCR), Unconfirmed [3, 4]: 0
- VGPR or better (sCR + CR + VGPR) [3, 4]: 36 (64.3%)
- Very good partial response (VGPR) [3, 4]: 20 (35.7%)
- Very good partial response (VGPR), Unconfirmed [3, 4]: 5
- CR or better (sCR + CR) [3, 5]: 28 (25.9%)
- Clinical benefit (Overall response + MR) [3, 5]: 89 (82.4%)
- Complete response (CR) [3, 5]: 14 (13.0%)
- Minimal response (MR) [3, 5]: 0
- Not evaluable (NE) [3, 5]: 0
- Overall response (sCR+CR+VGPR+PR) [3, 5]: 89 (82.4%)
- Partial response (PR) [3, 5]: 18 (16.7%)
- Progressive disease (PD) [3, 5]: 4 (3.7%)
- Stringent complete response (sCR) [3, 5]: 14 (13.0%)
- VGPR or better (sCR + CR + VGPR) [3, 5]: 71 (65.7%)
- Very good partial response (VGPR) [3, 5]: 43 (39.8%)
- Very good partial response (VGPR), Unconfirmed [3, 5]: 13
- Frequency of CD38+ T cells ([1]; FIG. 4, following talquetamab dosing in the presence of daratumumab 1800 mg): increase
- CD38+ CD8+ T cells ([1]; after the initial doses of talquetamab despite concurrent daratumumab dosing): induction

— patent publication US20230295292A1, “METHODS OF TREATING CANCERS AND ENHANCING EFFICACY OF GPRC5DXCD3 BISPECIFIC ANTIBODIES” (Janssen Biotech, Inc., priority 2021, published 2023)
